This passage reports inhibition activity and melting point results from patent publication US11970458B1, “4,5-bis(4-bromophenyl)-1-hexyl-2-(4-nitrophenyl)-1H-imidazole as an antimicrobial compound” (KING FAISAL UNIVERSITY, priority 2023, dated 2024).

For data set [1], the system named is Candida albicans. The data set is described as follows: antimicrobial screening by agar dilution. It is filed as cell-based. Particulars: after 10, 20, 40 and 60 minutes at all dilutions 1:100, 1:200, 1:400, 1:800. The protocol:
(§1) The antimicrobial properties of the 4,5-bis(4-bromophenyl)-1-hexyl-2-(4-nitrophenyl)-1H-imidazole was studied by the method of agar dilution. Test solutions of each compound was prepared in concentration of 1% using dimethylformamide as a solvent then they were diluted in physiological solution to obtain the final experimental dilutions 1:100, 1:200, 1:400, 1:800. The effect of these substances were compared with furacillin in a controlled study. The testing microbes used were gram positive bacteria Staphylococcus aureus, gram negative bacteria Pseudomonas aeruginosa and Escherichia coli and Candida albicans fungi were taken. The experiments used for this survey were meat-pentonlu agar (EPA) for cultivation of bacteria and Saburo environment for fungi. Each experiment used 1 ml of test solution on each plate 500 min. Add 2 drops of emulsified with microbes feel. All experimental samples were taken from the agar after 10, 20, 40, 60 minutes in the environment on the basis of Patrk planted. Bacteria were cultivated at a temperature of 37° C. for 1 day and the mushroom was kept in a thermostat for […] at a temperature of 28° C. Then results were checked.

The test system of data set [2] is Escherichia coli. The data set is described as follows: antimicrobial screening by agar dilution. It is filed as cell-based. Particulars: after 10, 20, 40 and 60 minutes at all dilutions 1:100, 1:200, 1:400, 1:800. The protocol: as §1
The test system of data set [3] is Pseudomonas aeruginosa. The data set is described as follows: antimicrobial screening by agar dilution. It is filed as cell-based. The note with it: after 10, 20, 40 and 60 minutes at all dilutions 1:100, 1:200, 1:400, 1:800. The protocol: as §1
Data set [4] concerns Staphylococcus aureus. Put plainly: antimicrobial screening by agar dilution. The format is cell-based. Particulars: after 10, 20, 40 and 60 minutes at all dilutions 1:100, 1:200, 1:400, 1:800. The protocol:
as §1

The compound `CCCCCCn1c(-c2ccc([N+](=O)[O-])cc2)nc(-c2ccc(Br)cc2)c1-c1ccc(Br)cc1` [4,5-bis(4-bromophenyl)-1-hexyl-2-(4-nitrophenyl)-1H-imidazole] displayed a melting point of 160 to 161 °C. Further, the inhibition activity entry in data set [1] is on record as “highest inhibition activity”. For the same compound, in data set [2], the inhibition activity entry was “highest inhibition activity”. In data set [3], the inhibition activity result is recorded as “highest inhibition activity”. Moreover, the inhibition activity entry in data set [4] is on record as “highest inhibition activity”.
